Data from paper PMC9071123 (PLoS Neglected Tropical Diseases, 2022).
Where “and” joins values, the source holds several entries; their conditions need not be identical. Equal values may be shown once. Where a name gives a salt, the structure may show the parent alone. Read-outs that look alike come from different tables or passages of the source.

How the values were obtained:
[1] = tested on: SARS-CoV-2 S-mediated cell-cell fusion; type: cell-based
SARS-CoV-2 [2] = details: previous study ref 19; cited from earlier work
SARS-CoV-2 [3] = assay: microbe, parasite or virus in culture; type: cell-based, SARS-CoV-2 (WIV-04); details: for EC50: Severe acute respiratory syndrome coronavirus 2, Vero C1008, 36 h
[4] = Cytotoxicity CCK8 assay, Vero E6; details: African green monkey, Vero E6 cells
Vero E6 cells [5] = assay: Cytotoxicity CCK8 assay, Vero E6
SARS-CoV-2 [6] = assay: microbe, parasite or virus in culture; type: cell-based, SARS-CoV-2 (WIV-04); details: Severe acute respiratory syndrome coronavirus 2, Caco-2, 36 h
[7] = tested on: Renilla luciferase (Rluc) replicon of SARS-CoV-2; type: cell-based
[8] = tested on: VSV-delG-Rluc-SARS-CoV-2-S pseudovirus; type: cell-based; details: 10 μM
Vero E6 cells [9] = details: African green monkey, 36 h
Caco2 cells = details: human, 36 h
in vitro [10] = details: African green monkey
in vitro [11] = details: human
SARS-CoV-2 [12] = assay: Virus attachment assay in Vero E6 cells; details: 10 μM, Vero E6, 4°C 1 h
Protocol: After synchronized adsorption for 1 h, the unbound SARS-CoV-2 virions were removed by PBS washing, and the relative levels of bound SARS-CoV-2 virions were measured by qRT-PCR assay.

**Q.** With `COc1cc2c(cc1OC)[C@@H](Cc1ccc(O)c(Oc3cc4c(cc3OC)CCN(C)[C@@H]4Cc3ccc(O)cc3)c1)N(C)CC2` [liensinine] as the compound, how does the “inhibition of S-mediated cell-cell fusion (syncytial phenotype)” value (from here on “inhibition … (syncytial phenotype)”) [1] read?
**A.** apparent inhibitory effects

**Q.** And the “inhibition of the SARS-CoV-2 induced cytopathic effect” value (SARS-CoV-2 [2])?
**A.** efficiently inhibit

**Q.** Which “inhibition against SARS-CoV-2 infection” value (SARS-CoV-2 [3]) does the source give for `COc1ccc2cc1Oc1ccc(cc1)C[C@H]1c3cc(c(OC)cc3CCN1C)Oc1c(OC)c(OC)cc3c1[C@H](C2)N(C)CC3` [Tetrandrine, tetrandrine] here?
**A.** dose-dependent inhibition

**Q.** What about the “selective index (SI)” value (SARS-CoV-2 [3]) of the same compound?
**A.** >6.92

**Q.** What about the EC50 (SARS-CoV-2 [3]) of the same compound?
**A.** 2890 nM

**Q.** What about the “inhibition … (syncytial phenotype)” value [1] of the same compound?
**A.** apparent inhibitory effects

**Q.** And the “inhibition of the SARS-CoV-2 induced cytopathic effect” value (SARS-CoV-2 [2])?
**A.** efficiently inhibit

**Q.** And the CC50 at 36 h [4]?
**A.** > 20000 nM

**Q.** What about the “%inhibiton, mean (CC50 data, CCK-8)” value (Vero E6 cells [5]; Vero-E6, 0.078125 μM) of the same compound?
**A.** 5.4651%

**Q.** And the “%inhibiton, mean (CC50 data, CCK-8)” value (Vero E6 cells [5]; Vero-E6, 0.15625 μM)?
**A.** 9.075%

**Q.** And the “%inhibiton, mean (CC50 data, CCK-8)” value (Vero E6 cells [5]; Vero-E6, 0.3125 μM)?
**A.** 8.155%

**Q.** And the “%inhibiton, mean (CC50 data, CCK-8)” value (Vero E6 cells [5]; Vero-E6, 0.625 μM)?
**A.** 11.3125%

**Q.** And the “%inhibiton, mean (CC50 data, CCK-8)” value (Vero E6 cells [5]; Vero-E6, 1.25 μM)?
**A.** 11.2558%

**Q.** And the “%inhibiton, mean (CC50 data, CCK-8)” value (Vero E6 cells [5]; Vero-E6, 2.5 μM)?
**A.** 4.063%

**Q.** And the “%inhibiton, mean (CC50 data, CCK-8)” value (Vero E6 cells [5]; Vero-E6, 5 μM)?
**A.** 5.628%

**Q.** What about the “%inhibiton, mean (CC50 data, CCK-8)” value (Vero E6 cells [5]; Vero-E6, 10 μM) of the same compound?
**A.** -1.303%

**Q.** What about the “%inhibiton, mean (CC50 data, CCK-8)” value (Vero E6 cells [5]; Vero-E6, 20 μM) of the same compound?
**A.** -2.23%

**Q.** Which “inhibition … (syncytial phenotype)” value [1] does the source give for `COc1ccc(C[C@@H]2c3cc(Oc4cc(C[C@@H]5c6cc(O)c(OC)cc6CCN5C)ccc4O)c(OC)cc3CCN2C)cc1` [isoliensinine] here?
**A.** apparent inhibitory effects

**Q.** What about the “inhibition of the SARS-CoV-2 induced cytopathic effect” value (SARS-CoV-2 [2]) of the same compound?
**A.** efficiently inhibit

**Q.** Which “inhibition against SARS-CoV-2 infection” value (SARS-CoV-2 [3]) does the source give for `COc1ccc2cc1Oc1ccc(cc1)C[C@H]1c3cc(c(OC)cc3CCN1C)Oc1c(O)c(OC)cc3c1[C@H](C2)N(C)CC3` [Fangchinoline, fangchinoline] here?
**A.** dose-dependent inhibition

**Q.** And the “selective index (SI)” value (SARS-CoV-2 [3])?
**A.** >9.57

**Q.** And the EC50 (SARS-CoV-2 [3])?
**A.** 2090 nM

**Q.** What about the “inhibition … (syncytial phenotype)” value [1] of the same compound?
**A.** apparent inhibitory effects

**Q.** What about the “inhibition of the SARS-CoV-2 induced cytopathic effect” value (SARS-CoV-2 [2]) of the same compound?
**A.** efficiently inhibit

**Q.** What about the CC50 at 36 h [4] of the same compound?
**A.** > 20000 nM

**Q.** And the “%inhibiton, mean (CC50 data, CCK-8)” value (Vero E6 cells [5]; Vero-E6, 0.078125 μM)?
**A.** 7.966%

**Q.** What about the “%inhibiton, mean (CC50 data, CCK-8)” value (Vero E6 cells [5]; Vero-E6, 0.15625 μM) of the same compound?
**A.** 4.163%

**Q.** And the “%inhibiton, mean (CC50 data, CCK-8)” value (Vero E6 cells [5]; Vero-E6, 0.3125 μM)?
**A.** 4.478%

**Q.** What about the “%inhibiton, mean (CC50 data, CCK-8)” value (Vero E6 cells [5]; Vero-E6, 0.625 μM) of the same compound?
**A.** 8.257%

**Q.** And the “%inhibiton, mean (CC50 data, CCK-8)” value (Vero E6 cells [5]; Vero-E6, 1.25 μM)?
**A.** 10.5597%

**Q.** What about the “%inhibiton, mean (CC50 data, CCK-8)” value (Vero E6 cells [5]; Vero-E6, 2.5 μM) of the same compound?
**A.** 7.088%

**Q.** What about the “%inhibiton, mean (CC50 data, CCK-8)” value (Vero E6 cells [5]; Vero-E6, 5 μM) of the same compound?
**A.** 14.0504%

**Q.** And the “%inhibiton, mean (CC50 data, CCK-8)” value (Vero E6 cells [5]; Vero-E6, 10 μM)?
**A.** 8.415%

**Q.** What about the “%inhibiton, mean (CC50 data, CCK-8)” value (Vero E6 cells [5]; Vero-E6, 20 μM) of the same compound?
**A.** 0.3804%

**Q.** What does the source list for `COc1cc2c3cc1Oc1c(OC)c(OC)cc4c1[C@@H](Cc1ccc(O)c(c1)Oc1ccc(cc1)C[C@@H]3N(C)CC2)N(C)CC4` [Berbamine hydrochloride]?
**A.** EC50 (SARS-CoV-2 [3]): 1730 nM; EC50 (SARS-CoV-2 [6]): 1890 nM; replicon luciferase signal, drug treatment versus DMSO [7]: no significant difference; reduction of intracellular luciferase activity compared to DMSO treatment ([8]; Vero E6, 24 h post pseudovirus infection): about 10 fold; intracellular luciferase activity, mean ([8]; Vero E6, 24 h post-infection (DMSO mean 389736)): 47678.5; inhibition of S-mediated cell-cell fusion (syncytial phenotype) [1]: little or no such syncytial phenotype was observed; %inhibiton, mean (CC50 data, CCK-8) (Vero E6 cells [9]; 0.3125 μM): -6.065%; %inhibiton, mean (CC50 data, CCK-8) (Vero E6 cells [9]; 0.625 μM): -4.636%; %inhibiton, mean (CC50 data, CCK-8) (Vero E6 cells [9]; 1.25 μM): -0.8416%; %inhibiton, mean (CC50 data, CCK-8) (Vero E6 cells [9]; 2.5 μM): -0.7911%; %inhibiton, mean (CC50 data, CCK-8) (Vero E6 cells [9]; 5 μM): -7.026%; %inhibiton, mean (CC50 data, CCK-8) (Vero E6 cells [9]; 10 μM): -8.006%; %inhibiton, mean (CC50 data, CCK-8) (Vero E6 cells [9]; 20 μM): 1.038%; %inhibiton, mean (CC50 data, CCK-8) (Vero E6 cells [9]; 40 μM): 73.2674%; %inhibiton, mean (CC50 data, CCK-8) (Vero E6 cells [9]; 80 μM): 78.8829%; %inhibiton, mean (CC50 data, CCK-8) (Caco2 cells; 0.3125 μM): -11.728%; %inhibiton, mean (CC50 data, CCK-8) (Caco2 cells; 0.625 μM): -16.6504%; %inhibiton, mean (CC50 data, CCK-8) (Caco2 cells; 1.25 μM): -15.2704%; %inhibiton, mean (CC50 data, CCK-8) (Caco2 cells; 2.5 μM): -14.7661%; %inhibiton, mean (CC50 data, CCK-8) (Caco2 cells; 5 μM): -19.7288%; %inhibiton, mean (CC50 data, CCK-8) (Caco2 cells; 10 μM): -18.7648%; %inhibiton, mean (CC50 data, CCK-8) (Caco2 cells; 20 μM): -1.748%; %inhibiton, mean (CC50 data, CCK-8) (Caco2 cells; 40 μM): 50.1206%; %inhibiton, mean (CC50 data, CCK-8) (Caco2 cells; 80 μM): 67.6973%; CC50 at 36 h (in vitro [10]): 66900 nM; CC50 at 36 h (in vitro [11]): 31900 nM; cell-attached viral RNA copies versus DMSO control group (SARS-CoV-2 [12]): no significant difference; Viral copies (Normalized to DMSO), mean (SARS-CoV-2 [12]; MOI 0.05 (DMSO = 100)): 94.7359

**Q.** Which results are given for `COc1ccc2cc1Oc1ccc(cc1)C[C@H]1c3c(cc4c(c3Oc3cc5c(cc3OC)CCN(C)[C@@H]5C2)OCO4)CCN1C` [Cepharanthine, cepharanthine]?
**A.** %inhibiton, mean (viral RNA genomic copy number) (SARS-CoV-2 [3]): 99.5371% and 98.6265% and 86.3235% and 71.2349% and 67.6803%; inhibition against SARS-CoV-2 infection (SARS-CoV-2 [3]): dose-dependent inhibition; selective index (SI) (SARS-CoV-2 [3]): >8.93; EC50 (SARS-CoV-2 [3]): 2240 nM; inhibition of S-mediated cell-cell fusion (syncytial phenotype) [1]: apparent inhibitory effects; inhibition of the SARS-CoV-2 induced cytopathic effect (SARS-CoV-2 [2]): efficiently inhibit; CC50 at 36 h [4]: > 20000 nM; %inhibiton, mean (CC50 data, CCK-8) (Vero E6 cells [5]; Vero-E6, 0.078125 μM): 9.153%; %inhibiton, mean (CC50 data, CCK-8) (Vero E6 cells [5]; Vero-E6, 0.15625 μM): 9.469%; %inhibiton, mean (CC50 data, CCK-8) (Vero E6 cells [5]; Vero-E6, 0.3125 μM): 5.3801%; %inhibiton, mean (CC50 data, CCK-8) (Vero E6 cells [5]; Vero-E6, 0.625 μM): 1.292%; %inhibiton, mean (CC50 data, CCK-8) (Vero E6 cells [5]; Vero-E6, 1.25 μM): 5.646%; %inhibiton, mean (CC50 data, CCK-8) (Vero E6 cells [5]; Vero-E6, 2.5 μM): 5.87%; %inhibiton, mean (CC50 data, CCK-8) (Vero E6 cells [5]; Vero-E6, 5 μM): 7.302%; %inhibiton, mean (CC50 data, CCK-8) (Vero E6 cells [5]; Vero-E6, 10 μM): 3.537%; %inhibiton, mean (CC50 data, CCK-8) (Vero E6 cells [5]; Vero-E6, 20 μM): 2.215%
